How the values were obtained:
PRMT5 [1] = molecular target: T1, PRMT5 (Homo sapiens, UniProt O14744); test: PRMT5 biochemical IC50 assay with no cofactor; conditions: PRMT5, no cofactor
T1 construct: purchased Viva (custom protein)
Description: Table 1 indicates IC50 values (μM) against PRMT5 for exemplary compounds in the presence of SAM as cofactor, with no cofactor, and with MTA as cofactor, respectively (columns 4-6). […] Ki values can be calculated from the IC50 values as described in the Examples section. As detailed in the Examples section, for the assay performed in the presence of SAM, IC50=Ki×1.5 (Ki=IC50/1.5).

[2] = tested on: HAP1 MTAP-intact cell line; test: SDMA in-cell western assay, HAP1 MTAP-intact; format: cell-based; conditions: Homo sapiens, HAP1, SDMA in-cell western, HAP1 MTAP-intact; read-out: MTAP HAP1 intact IC50
In short: (§1)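 IC50 values come from SDMA signal quantified by in-cell western in two HAP1 lines, one with native MTAP levels and one lacking MTAP.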

PRMT5 [3] = molecular target: T1, PRMT5; test: PRMT5 biochemical IC50 assay with MTA as cofactor; conditions: PRMT5, MTA as cofactor; read-out: MTA IC50
[4] = tested on: HAP1 MTAP-deleted cell line; test: SDMA in-cell western assay, HAP1 MTAP-deleted; format: cell-based; conditions: for IC50: Homo sapiens, HAP1, SDMA in-cell western, HAP1 MTAP-deleted; for MTAP intact/deleted ratio: IC50 ratio HAP1 MTAP-intact / HAP1 MTAP-deleted, SDMA in-cell western
In short: as §1

PRMT5 [5] = molecular target: T1, PRMT5; test: PRMT5 biochemical IC50 assay with SAM as cofactor; conditions: PRMT5, SAM as cofactor; read-out: SAM IC50
[6] = tested on: HAP1 MTAP-deleted cell line; test: Viability assay, MTAP-deleted cell line; format: cell-based; conditions: Homo sapiens, read-out: HAP1 MTAP deleted viability
Description: Table 1 additionally indicates IC50 values in a viability assay for the MTAP-deleted cell line (column 10), indicating the effect of treatment with compound on cell survival.

[7] = read-out: HAP1 MTAP deleted IC50
[8] = HAP1, viability assay, HAP1 MTAP-deleted
[9] = read-out: HAP 1 MTAP deleted IC50
[10] = HAP1, viability IC50, MTAP-deleted cell line
[11] = HAP1, viability assay, MTAP-deleted cell line
[12] = read-out: No Cofactor/ rel IC50

T1 sequence (O14744 whole entry): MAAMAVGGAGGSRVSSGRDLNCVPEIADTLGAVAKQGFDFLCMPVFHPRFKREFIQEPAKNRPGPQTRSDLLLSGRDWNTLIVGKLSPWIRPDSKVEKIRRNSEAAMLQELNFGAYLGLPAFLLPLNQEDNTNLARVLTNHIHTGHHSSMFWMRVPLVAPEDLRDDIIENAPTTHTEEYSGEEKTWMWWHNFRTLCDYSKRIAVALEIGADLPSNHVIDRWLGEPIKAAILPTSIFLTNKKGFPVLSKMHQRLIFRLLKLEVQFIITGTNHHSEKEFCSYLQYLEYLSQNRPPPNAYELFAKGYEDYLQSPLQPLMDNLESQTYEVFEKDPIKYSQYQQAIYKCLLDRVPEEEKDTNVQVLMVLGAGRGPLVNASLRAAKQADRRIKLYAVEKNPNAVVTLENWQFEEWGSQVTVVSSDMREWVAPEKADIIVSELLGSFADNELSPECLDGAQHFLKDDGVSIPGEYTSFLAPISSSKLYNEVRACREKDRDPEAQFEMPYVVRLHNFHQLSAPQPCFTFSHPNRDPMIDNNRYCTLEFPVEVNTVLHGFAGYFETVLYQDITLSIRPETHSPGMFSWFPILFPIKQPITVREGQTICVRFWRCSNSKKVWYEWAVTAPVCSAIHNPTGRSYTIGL
T1 sequence (Q9BQA1 whole entry partner): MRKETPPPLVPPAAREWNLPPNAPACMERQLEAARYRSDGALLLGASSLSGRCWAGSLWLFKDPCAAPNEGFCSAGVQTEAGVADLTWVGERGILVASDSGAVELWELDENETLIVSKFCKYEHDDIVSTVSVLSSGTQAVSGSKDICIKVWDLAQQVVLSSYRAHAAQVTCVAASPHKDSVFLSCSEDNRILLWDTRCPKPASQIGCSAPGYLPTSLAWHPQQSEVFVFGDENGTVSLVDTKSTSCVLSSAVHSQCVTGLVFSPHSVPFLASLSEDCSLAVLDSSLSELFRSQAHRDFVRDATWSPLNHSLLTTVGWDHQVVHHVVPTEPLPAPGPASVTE

| Structure (SMILES) | IC50 (PRMT5 [1]; read-out: No Cofactor/rel IC50) [nM] | IC50 [2] [nM] | IC50 (PRMT5 [3]) [nM] | IC50 [4, 7] [nM] | MTAP intact/deleted ratio [4] | IC50 (PRMT5 [5]) [nM] | IC50 [6, 8] [nM] | IC50 [4, 9] [nM] | IC50 [6, 10] [nM] | IC50 [6, 11] [nM] | IC50 (PRMT5 [1]; [12]) [nM] |
| --- | --- | --- | --- | --- | --- | --- | --- | --- | --- | --- | --- |
| CCc1cc(NC(=O)C(=O)N2C[C@H](C)CC[C@H]2c2ccc3c(c2)CCC(=O)N3)cnc1N (single isomer, unassigned) [Compound 720] | < 50 | 100 to 1000 | < 50 | < 100 | A (an IC50 ratio greater than or equal to 10 fold) | 50 to 500 | < 1000 |  |  |  |  |
| CC[C@H]1CC[C@H](c2ccccc2)N(C(=O)C(=O)Nc2cncc(C(N)=O)c2)C1 (single isomer, unassigned) [Compound 547] | 50 to 500 | > 1000 | < 50 |  | A (an IC50 ratio greater than or equal to 10 fold) | 50 to 500 |  | < 100 | 1000 to 10000 |  |  |
| Cc1cc(NC(=O)C(=O)N2C[C@H](C)CC[C@H]2c2ccc(NS(C)(=O)=O)nc2)cnc1N (single isomer, unassigned) [Compound 980] | 50 to 500 | > 1000 | 50 to 500 |  | B (an IC50 ratio greater than or equal to 3 fold but lower than 10 fold) | 50 to 500 |  | > 1000 |  | > 10000 |  |
| CCc1cc(NC(=O)C(=O)N2C[C@@H](C)CC[C@@H]2c2cc3[nH]ncc3s2)cnc1N (single isomer, unassigned) [Compound 967] | > 500 | > 1000 | > 500 |  | B (an IC50 ratio greater than or equal to 3 fold but lower than 10 fold) | > 500 |  | > 1000 |  | > 10000 |  |
| Cc1cc(NC(=O)C(=O)N2C[C@H](C)CC[C@H]2c2cccc(Cl)c2)cnc1N (single isomer, unassigned) [Compound 283] | > 500 | > 1000 | > 500 | > 1000 | B (an IC50 ratio greater than or equal to 3 fold but lower than 10 fold) | > 500 |  |  |  | > 10000 |  |
| CCc1cc(NC(=O)C(=O)N2C[C@H](C)CC[C@H]2c2ccc(NC)nc2)cnc1N (single isomer, unassigned) [Compound 865] | < 50 | 100 to 1000 | < 50 | < 100 | A (an IC50 ratio greater than or equal to 10 fold) | 50 to 500 | < 1000 |  |  |  |  |
| C[C@@H]1CC[C@@H](c2ccc3[nH]c(=O)[nH]c3c2)N(C(=O)C(=O)Nc2cncc(C(N)=O)c2)C1 (racemic) [Compound 623, rac-5-[[2-[(2R,5S)-5-methyl-2-(2-oxo-1,3-dihydrobenzimidazol-5-yl)-1-piperidyl]-2-oxo-acetyl]amino]pyridine-3-carboxamide] | 50 to 500 | > 1000 | 50 to 500 |  | A (an IC50 ratio greater than or equal to 10 fold) | 50 to 500 |  | 100 to 1000 | > 10000 |  |  |
| COc1ncc(NC(=O)C(=O)N2C[C@H](C)CC[C@H]2c2ccc3cnccc3c2)cc1C(N)=O (single isomer, unassigned) [Compound 933] | > 500 | > 1000 | > 500 |  | B (an IC50 ratio greater than or equal to 3 fold but lower than 10 fold) | > 500 |  | > 1000 |  | > 10000 |  |
| Cc1cc(NC(=O)C(=O)N2CCCC[C@H]2c2cccc(N(C)C)c2)cnc1N (single isomer, unassigned) [Compound 384] | < 50 | > 1000 | < 50 | < 100 | A (an IC50 ratio greater than or equal to 10 fold) | 50 to 500 |  |  |  | < 1000 |  |
| C[C@@H]1CC[C@@H](c2ccc3nncn3c2)N(C(=O)C(=O)Nc2cncc(C(N)=O)c2)C1 (racemic) [Compound 272, rac-5-{2-[(2R,5S)-5-Methyl-2-{[1,2,4]triazolo[4,3-a]pyridin-6-yl}piperidin-1-yl]-2-oxoacetamido}pyridine-3-carboxamide] | 50 to 500 | > 1000 | 50 to 500 | > 1000 | C (an IC50 ratio of less than 3 fold) | 50 to 500 |  |  |  | > 10000 |  |
| Cc1ncc(NC(=O)C(=O)N2C[C@H](C)CC[C@H]2c2ccccc2)cc1C(N)=O (single isomer, unassigned) [Compound 196] | > 500 | > 1000 | > 500 | > 1000 | C (an IC50 ratio of less than 3 fold) | > 500 |  |  |  | > 10000 |  |
| CCc1cc(NC(=O)C(=O)N2C[C@H](C)CC[C@H]2c2ccc(-c3nccs3)cc2)cnc1N (single isomer, unassigned) [Compound 813] | 50 to 500 | > 1000 | < 50 | 100 to 1000 | A (an IC50 ratio greater than or equal to 10 fold) | 50 to 500 | < 1000 |  |  |  |  |
| Cc1cc(NC(=O)C(=O)N2CCCC[C@H]2c2cccnc2)cnc1N (single isomer, unassigned) [Compound 69] |  | > 1000 | < 50 |  | A (an IC50 ratio greater than or equal to 10 fold) | 50 to 500 |  | 100 to 1000 |  | > 10000 | 50 to 500 |
| CCc1cc(NC(=O)C(=O)N2C[C@@H](C)CC[C@@H]2c2ccccc2)cnc1N (single isomer, unassigned) [Compound 709] | > 500 | > 1000 | 50 to 500 | > 1000 | C (an IC50 ratio of less than 3 fold) | > 500 | > 10000 |  |  |  |  |
| C[C@@H]1CC[C@@H](c2cccnc2)N(C(=O)C(=O)Nc2cncc(C(N)=O)c2)C1 (single isomer, unassigned) [Compound 106] |  | > 1000 | < 50 |  | A (an IC50 ratio greater than or equal to 10 fold) | < 50 |  | < 100 |  | 1000 to 10000 | 50 to 500 |
| CNS(=O)(=O)c1cccc([C@@H]2CC[C@@H](C)CN2C(=O)C(=O)Nc2cnc(N)c(C)c2)c1 (racemic) [Compound 691, N-(6-amino-5-methyl-3-pyridyl)-2-[(2S,5R)-5-methyl-2-[3-(methylsulfamoyl)phenyl]-1-piperidyl]-2-oxo-acetamide] | 50 to 500 | > 1000 | < 50 |  | A (an IC50 ratio greater than or equal to 10 fold) | 50 to 500 |  | 100 to 1000 | 1000 to 10000 |  |  |
| COc1cccc([C@@H]2CC[C@@H](C)CN2C(=O)C(=O)Nc2cncc(C(N)=O)c2)c1 (racemic) [Compound 214, rac-5-{2-[(2R,5S)-2-(3-Methoxyphenyl)-5-methylpiperidin-1-yl]-2-oxoacetamido}pyridine-3-carboxamide] | 50 to 500 | > 1000 | < 50 | < 100 |  | 50 to 500 |  |  |  | 1000 to 10000 |  |
| CC(=O)Nc1cccc([C@@H]2CC[C@@H](C)CN2C(=O)C(=O)Nc2cncc(C)c2)c1 (racemic) [Compound 110, 2-[(2S,5R)-2-(3-acetamidophenyl)-5-methyl-1-piperidyl]-N-(5-methyl-3-pyridyl)-2-oxo-acetamide] |  | > 1000 | 50 to 500 |  | B (an IC50 ratio greater than or equal to 3 fold but lower than 10 fold) | 50 to 500 |  | > 1000 |  | > 10000 | 50 to 500 |
| C[C@@H]1C[C@@H](F)[C@@H](c2ccc(F)cc2)N(C(=O)C(=O)Nc2cncc(C(N)=O)c2)C1 (racemic) [Compound 898, 5-[[2-[(2R,3R,5R)-3-fluoro-2-(4-fluorophenyl)-5-methyl-1-piperidyl]-2-oxo-acetyl]amino]pyridine-3-carboxamide] | 50 to 500 | > 1000 | 50 to 500 |  | A (an IC50 ratio greater than or equal to 10 fold) | > 500 |  | 100 to 1000 |  | 1000 to 10000 |  |
| CCc1cc(NC(=O)C(=O)N2C[C@H](C)CC[C@H]2c2ccc(N3CCN(C(C)C)CC3)cc2)cnc1N (single isomer, unassigned) [Compound 1234] | > 500 | > 1000 | > 500 | > 1000 |  | > 500 |  |  |  | 1000 to 10000 |  |

Reference: patent US11999727B2 (Tango Therapeutics, Inc., priority 2020, dated 2024)
